SMILES strings stand for the structures. Where a name gives a salt, the structure may show the parent alone.

Type in all cases: physicochemical
Data set [1] in a line: pKa (physicochemistry of the actives). From the text:
The synchronous release of the combination of actives comprising the once-daily pharmaceutical compositions of the present invention is particularly surprising when one considers that the differing physicochemical characteristics of the active ingredients and the likely differences in the permeability coefficients for the combination of active drugs would result in a differing rate and extent of drug release for each of the drugs chosen to be part of the combination. Accordingly, it was expected that it would be difficult to optimize the release kinetics of the combination of drugs contemplated without one drug potentially negatively influencing the release kinetics of the other drug of the combination.

A short description of data set [2]: Dissolution, 900 ml pH 6.8 phosphate buffer, USP Apparatus 1, 75 rpm, 37° C. The settings on record: Example 29 homogenous CR tablet (batch no. 08070T). On the procedure:
(§1) The dissolution profile of the above pharmaceutical composition was determined under the dissolution conditions described below in Tables 1A, 1B, and 1C.

Data set [3] in a line: Dissolution, 900 ml 0.1N HCl, USP Apparatus 1, 75 rpm, 37° C. To be noted: Example 29 homogenous CR tablet (batch no. 08070T). On the procedure: as §1
Data set [4] is described as follows: Dissolution, 900 ml pH 7.5 phosphate buffer, Apparatus 1, 75 rpm, 37 C. On the procedure:
FIG. 27 is a graph depicting the dissolution profile in 900 ml of pH 7.5 phosphate buffer using USP Apparatus 1 at 75 rpm at 37° C. of the composition described in Example 27.
FIG. 28 is a graph depicting the dissolution profile in 900 ml of pH 7.5 phosphate buffer using USP Apparatus 1 at 75 rpm at 37° C. of the composition described in Example 28.
The dissolution profile of the above pharmaceutical composition was determined under the dissolution conditions described below in Table 27.
The dissolution profile of the above pharmaceutical composition was determined under the dissolution conditions described below in Table 28. The result of the dissolution testing is presented as a % of the total tramadol HCl and meloxicam in the controlled release tablet (batch 1258-175) and also depicted in FIG. 28.

A word on the pKa: it is the pH at which an ionisable group is half protonated. Regarding `CC(NC(C)(C)C)C(=O)c1cccc(Cl)c1` (stereo not shown) [Bupropion HBr, bupropion hydrobromide], the pKa in data set [1] was 7.8.
Take `OCCOCCN1CCN(C2=Nc3ccccc3Sc3ccccc32)CC1` [Quetiapine Fumarate, quetiapine fumarate]: in data set [1], the pKa came to 3.3.
For the compound `COc1cccc(C2(O)CCCCC2CN(C)C)c1` (stereo not shown) [Tramadol HCl], the “% Released” value is 19% in data set [2] (0.5 hr); 29% in data set [2] (1 hr); 44% in data set [2] (2 hr); 55% in data set [2] (3 hr); 65% in data set [2] (4 hr); 72% in data set [2] (5 hr). Moreover, the “% Released” value was determined as 79% in data set [2] (6 hr); 90% in data set [2] (8 hr); 98% in data set [2] (10 hr); 18% in data set [3] (0.5 hr); 28% in data set [3] (1 hr); 42% in data set [3] (2 hr). The “% Released” value in data set [3] (3 hr) is reported as 53%; in data set [3] (4 hr) it was 62%; in data set [3] (5 hr), 70%; in data set [3] (6 hr) it was 76%; in data set [3] (8 hr) it was 86%; in data set [3] (10 hr), 93%. For the same compound, the “% Released” value in data set [3] (12 hr) amounted to 97%. The “% Release” value in data set [4] (2 hrs, Example 27 controlled release tablet (batch 1258-171), ethylcellulose coating) amounted to 51%; in data set [4] (2 hrs, Example 28 controlled release tablet (batch 1258-175), Kollicoat SR 30D coating), 0%; in data set [4] (4 hrs, Example 27 controlled release tablet (batch 1258-171), ethylcellulose coating), 70%; in data set [4] (4 hrs, Example 28 controlled release tablet (batch 1258-175), Kollicoat SR 30D coating), 7%; in data set [4] (8 hrs, Example 27 controlled release tablet (batch 1258-171), ethylcellulose coating), 96%; in data set [4] (8 hrs, Example 28 controlled release tablet (batch 1258-175), Kollicoat SR 30D coating), 61%. Moreover, the “% Release” value in data set [4] (10 hrs, Example 27 controlled release tablet (batch 1258-171), ethylcellulose coating) stood at 100%; in data set [4] (10 hrs, Example 28 controlled release tablet (batch 1258-175), Kollicoat SR 30D coating) it was 74%; in data set [4] (16 hrs, Example 27 controlled release tablet (batch 1258-171), ethylcellulose coating) it was 100%; in data set [4] (16 hrs, Example 28 controlled release tablet (batch 1258-175), Kollicoat SR 30D coating), 84%.

These data come from patent US20110052684A1, “PHARMACEUTICAL COMPOSITION” (priority 2008, published 2011).
